According to publication PMC11440508, “Dually Labeled Neurotensin NTS1R Ligands for Probing Radiochemical and Fluorescence-Based Binding Assays” (Journal of Medicinal Chemistry, 2024):

Experiments:
[1] = target: T1, NTS1R (Homo sapiens, UniProt P30989); assay: Radiochemical association and dissociation kinetics, adherent CHO-hNTS1R cells; format: binding
Method: (§1) Binding of both ligands, [^3H]13 and [^3H]18, was studied at adherent and suspended intact CHO-hNTS1R cells, and binding of [^3H]13 was additionally studied using CHO-hNTS1R cell membrane preparations (saturation and competition binding, kinetic studies). Furthermore, saturation binding experiments were performed with both ligands at intact adherent HT-29 cells. All experiments were performed in triplicate except for dissociation experiments performed with suspended cells in 50 mL flacon tubes (performed in duplicate). To reduce radioligand consumption in the aforementioned experiments, [^3H]13 and [^3H]18 were 1:1 diluted with 13 and 18, respectively (for the purpose of easier reading these mixtures are denoted "[^3H]13" and "[^3H]18"in the following). All samples were incubated at 23 ± 1 °C in the dark under gentle shaking (incubation times are outlined below). DPBS1 served as binding buffer throughout. In the case of experiments performed with cell suspensions, CHO-hNTS1R cells were seeded in T75 culture flasks 3–4 days prior to the experiment. On the day of the experiment, cells were detached by trypsinization, suspended in DPBS1 and centrifuged at 200g at rt for 5 min. Cells were resuspended in binding buffer and the cell density was adjusted to 1.5 × 10^5 to 2.5 × 10^5 cells/mL. Samples involving suspended cells or membrane preparations were prepared and incubated in 96-well polypropylene plates (Brand 701330, Wertheim, Germany) or in 50 mL polypropylene falcon tubes (Sarstedt), and the same filtration procedure for separating free radioligand from cell- or membrane bound radioligand was applied for all kind of binding experiments: after completed incubation, cells or cell membranes were collected on GF/C filter mats (0.26 mm; Whatman, Maidstone, U.K.) (pretreated with 0.3% polyethylenimine for 30 min) using an in-house manufactured harvester for 96-well plates (precision engineering workshop of the University of Regensburg, Regensburg, Germany), and the wells of the plate and the cells on the filter mat were immediately washed twice with ice-cold PBS (2 × 200 μL) (note: when samples were incubated in falcon tubes, 200-μL aliquots were transferred to the wells of a 96-well polypropylene plate after the incubation period, immediately followed by the filtration procedure). Filter pieces for each well were punched out and transferred into 1450–401 96-well sample plates (PerkinElmer, Rodgau, Germany), followed by the addition of Rotiscint Routine (Carl Roth, Karlsruhe, Germany) (200 μL). The plates were sealed with transparent sealing tape (Greiner EASYseal, part no. 676001, Greiner Bio-One) and shaken in the dark overnight before measurement of the radioactivity (dpm) using a MicroBeta2 plate counter equipped with six pairs of photomultiplier tubes (PerkinElmer).
For experiments involving adherent cells, CHO-hNTS1R (25,000 cells per well) or HT-29 (35,000 cells per well) cells were seeded one day prior to the experiment in white 96-well plates with clear bottom (VWR 732–3740). On the day of the experiment, the medium was aspirated and the cells (confluency: 70–90%) were washed with PBS (200 μL) followed by covering with DPBS1 (160 μL) and the addition of the ligands as outlined below. After completed incubation, the liquid was aspirated and the wells were washed twice with ice-cold PBS (200 μL) followed by the addition of lysis solution (urea (8 M), acetic acid (3 M) and Triton-X (1%) in water) (25 μL). After shaking for at least 20 min, liquid scintillator (UltimaGold, PerkinElmer) (200 μL) was added and the plates were sealed with a transparent sealing tape (permanent seal for microplates, PerkinElmer, prod. no. 1450–461). The sealed plates were turned upside down several times to achieve complete mixing of scintillator and lysis solution and were kept in the dark for at least 3 h before measurement of the radioactivity (dpm) with the MicroBeta2 plate counter. […]

[2] = target: T1, NTS1R; assay: Radiochemical association and dissociation kinetics, suspended CHO-hNTS1R cells; format: binding
Method: as §1
To start the association, 20 μL of an 18 nM solution of [^3H]13 or 20 μL of a 12 nM solution of [^3H]18 in DPBS1 (final concentrations: 1.8 or 1.2 nM) were added. The samples of the different time points were prepared in reversed order (longest incubation time first, shortest incubation time last) so that the cells of all samples could be harvested simultaneously. The time span for sample incubation was 1–180 min. Adherent cells: 96-well white/clear bottom plates with adherent cells were prefilled with DPBS1 (160 μL) after initial washing of the cells. […] To start the association, 20 μL of a 13 nM solution of [^3H]13 or 20 μL of an 11 nM solution of [^3H]18 in DPBS1 (final concentrations: 1.3 or 1.1 nM) were added. When the incubation time was reached, all liquid was removed by suction followed by washing (2 × ice-cold PBS) and cell lysis. The samples of the different time points were prepared in reversed order (longest incubation time first, shortest incubation time last) so that the cells of all samples could be washed and lysed simultaneously. […]

T1 sequence (P30989 whole entry): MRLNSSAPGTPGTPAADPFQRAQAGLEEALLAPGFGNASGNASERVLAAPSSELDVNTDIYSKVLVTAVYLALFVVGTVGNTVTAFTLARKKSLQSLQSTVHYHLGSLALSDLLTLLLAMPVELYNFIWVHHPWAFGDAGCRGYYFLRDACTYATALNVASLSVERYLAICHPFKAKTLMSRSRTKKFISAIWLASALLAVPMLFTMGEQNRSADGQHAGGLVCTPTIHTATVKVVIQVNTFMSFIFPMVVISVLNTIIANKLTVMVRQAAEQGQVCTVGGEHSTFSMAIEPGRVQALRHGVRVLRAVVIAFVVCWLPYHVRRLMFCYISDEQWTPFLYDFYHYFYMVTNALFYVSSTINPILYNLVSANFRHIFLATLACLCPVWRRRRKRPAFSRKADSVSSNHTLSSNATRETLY

In the case of CCC(=O)NCCCCNC(=O)NC(=N)NCCC[C@H](NC(=O)[C@@H]1CCCN1C(=O)[C@@H](NC(=O)CCc1cn(CCCNC(=O)c2ccc(-c3c4ccc(=[N+](C)C)cc-4oc4cc(N(C)C)ccc34)c(C(=O)[O-])c2)nn1)C1CCNCC1)C(=O)N[C@@H](CCCNC(=N)N)C(=O)N1CCC[C@H]1C(=O)N[C@@H](Cc1ccc(O)cc1)C(=O)N[C@H](C(=O)N[C@@H](CC(C)C)C(=O)O)[C@@H](C)CC [[^3H]13], the koff ([1]; adherent CHO-hNTS1R cells, 23 °C, read-out: koff [min^–1] (converted)) is reported as 0.000233 s⁻¹, the “kobs(slow) [min^–1]” value ([1]; adherent CHO-hNTS1R cells, biphasic exponential fit) is reported as 0.011 ± 0.001 ^b min^–1 and the kon ([1]; adherent CHO-hNTS1R cells, calculated from koff, kobs(fast) and ligand concentration, read-out: kon(fast) [min^–1 nM^–1] (converted)) is reported as 5.5e+06 M⁻¹ s⁻¹. For the same molecule, the Kd ([1]; adherent CHO-hNTS1R cells, koff/kon(fast), read-out: Kd(kin)) was 0.41 ± 0.24 nM, the “kobs(fast) [min^–1]” value ([1]; adherent CHO-hNTS1R cells, monophasic fit of initial association phase, 1.3 nM [^3H]13 or […] [^3H]18) was 0.57 ± 0.08 ^a min^–1 and the “Proportion of fast kinetic component (association)” value ([1]; adherent cells) was 19%. The “Proportion of slow kinetic component (association)” value ([1]; adherent cells) was 81%, the koff ([2]; suspended CHO-hNTS1R cells (50 mL falcon tubes), 23 °C, read-out: koff [min^–1] (converted)) was 0.0006 s⁻¹ and the “kobs(slow) [min^–1]” value ([2]; suspended CHO-hNTS1R cells, biphasic exponential fit) was 0.051 ± 0.001 ^b min^–1. The kon ([2]; suspended CHO-hNTS1R cells, calculated from koff, kobs(fast) and ligand concentration, read-out: kon(fast) [min^–1 nM^–1] (converted)) was 1.35e+07 M⁻¹ s⁻¹, the Kd ([2]; suspended CHO-hNTS1R cells, koff/kon(fast), read-out: Kd(kin)) was 0.044 ± 0.02 nM and the “kobs(fast) [min^–1]” value ([2]; suspended CHO-hNTS1R cells, monophasic fit of initial association phase, 1.8 nM [^3H]13 or […] [^3H]18) was 1.5 ± 0.3 ^a min^–1. The “Proportion of fast kinetic component (association)” value ([2]; suspended cells) was 21% and the “Proportion of slow kinetic component (association)” value ([2]; suspended cells) was 79%.
